In the experiment the target is T1, human renal renin (Homo sapiens, UniProt P00797).
T1 construct: human renal renin, free from acid proteolytic activity; from tissue
T1 sequence (P00797 67-406): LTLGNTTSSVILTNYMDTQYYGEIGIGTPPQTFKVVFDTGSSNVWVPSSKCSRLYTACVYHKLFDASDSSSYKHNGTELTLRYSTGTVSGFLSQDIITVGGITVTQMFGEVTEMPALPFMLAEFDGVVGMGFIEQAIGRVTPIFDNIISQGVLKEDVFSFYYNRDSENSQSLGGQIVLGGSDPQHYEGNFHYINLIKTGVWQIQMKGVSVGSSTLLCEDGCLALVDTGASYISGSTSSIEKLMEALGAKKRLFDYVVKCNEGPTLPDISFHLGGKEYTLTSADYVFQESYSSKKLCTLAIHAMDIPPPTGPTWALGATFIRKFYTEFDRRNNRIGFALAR
As to the kind of experiment: Inhibition of human renal renin in vitro (angiotensin I formed measured by radioimmunoassay). The experiment is classed as biochemical. As to conditions: human renal renin free from acid proteolytic activity, renin substrate human angiotensinogen, 37 degrees C, pH 6.0; read-out: IC50 (molar concentration required to cause 50% inhibition). On the procedure: The compounds of the invention are also useful for treating congestive heart failure in a mammal. […] At the end of the incubation, the amount of angiotensin I formed is measured by radioimmunoassay and the molar concentration required to cause 50% inhibition, expressed as the IC50, is calculated.
Regarding `CC(C)C[C@H](O)[C@H](O)[C@H](CC1CCCCC1)NC(=O)[C@H](Cc1cc[nH]n1)NC(=O)[C@@H](CC(=O)N(C)CCN1CCOCC1)Cc1ccccc1` [Example 155, (2R)-2-Benzyl-3-[(2-morpholin-4-ylethyl)methylcarbonyl]propionyl-L-(3-pyrazolyl)Ala Amide of (2S,3R,4S)-2-Amino-1-cyclohexyl-3,4-dihydroxy-6-methylheptane], the IC50 came to 0.32 nM.
In the case of `CC(C)C[C@H](O)[C@H](O)[C@H](CC1CCCCC1)NC(=O)[C@H](Cc1cscn1)NC(=O)[C@@H](CC(=O)CN1CCOCC1)Cc1ccccc1` [Example 95, (2R)-2-Benzyl-5-morpholin-4-yl-4-oxopentanoyl-L-(4-thiazolyl)Ala Amide of (2S,3R,4S)-2-Amino-1-cyclohexyl-3,4-dihydroxy-6-methylheptane], the IC50 is 0.56 nM.
The figure for `CC(C)C[C@H](O)[C@H](O)[C@H](CC1CCCCC1)NC(=O)[C@H](Cc1cscn1)NC(=O)[C@@H](CC(=O)N(C)CCc1ccccn1)Cc1ccccc1` [Example 114] is 0.33 nM; for `CN=c1scc(C[C@@H](Cc2ccccc2)C(=O)N[C@@H](Cc2cscn2)C(=O)N[C@@H](CC2CCCCC2)[C@@H](O)[C@@H](O)CC(C)C)n1C` [Example 103, (2R)-2-Benzyl-3-(2-methylimino-3-methyl-2,3-dihydrothiazol-4-yl)propionyl-L-(4-thiazolyl) Ala Amide of (2S,3R,4S)-2-Amino-1-cyclohexyl-3,4-dihydroxy-6-methylheptane] it is 0.43 nM; for `CC(C)C[C@H](O)[C@H](O)[C@H](CC1CCCCC1)NC(=O)[C@H](Cc1cscn1)NC(=O)[C@@H](CC(=O)N1CCN(CC(F)(F)F)CC1)Cc1ccccc1` [Example 94, (2R)-2-Benzyl-3-(4-trifluoroethylpiperazin-1-ylcarbonyl)propionyl-L-(4-thiazolyl)Ala Amide of (2S,3R,4S)-2-Amino-1-cyclohexyl-3,4-dihydroxy-6-methylheptane] it is 0.57 nM.
For the compound `CC(C)C[C@H](O)[C@H](O)[C@H](CC1CCCCC1)NC(=O)[C@H](Cc1cscn1)NC(=O)[C@@H](Cc1ccccc1)CS(=O)(=O)N(C)CCc1ccccn1` [Example 109, (2R)-2-Benzyl-3-[[2-pyridin-2-ylethyl(methyl)amino]sulfonyl]propionyl-L-(4-thiazolyl)Ala Amide of (2S,3R,4S)-2-Amino-1-cyclohexyl-3,4-dihydroxy-6-methylheptane], the IC50 turned out to be 0.25 nM.
As to `CC(C)C[C@H](O)[C@H](O)[C@H](CC1CCCCC1)NC(=O)[C@H](Cc1cscn1)NC(=O)[C@@H](Cc1ccccc1)CS(=O)(=O)C1CN(C)C1` [Example 108, (2R)-2-Benzyl-3-(1-methylazetidin-3-ylsulfonyl)propionyl-L-(4-thiazolyl)AlaAmide of (2S,3R,4S)-2-Amino-1-cyclohexyl-3,4-dihydroxy-6-methylheptane], the IC50 is 0.44 nM.
On to `CC(C)C[C@H](O)[C@H](O)[C@H](CC1CCCCC1)NC(=O)[C@H](Cc1cscn1)NC(=O)[C@H](Cc1ccccc1)Cn1ccnc1` [Example 102, (2R)-2-Benzyl-3-imidazol-1-ylpropionyl-L-(4-thiazolyl)Ala Amide of (2S,3R,4S)-2-Amino-1-cyclohexyl-3,4-dihydroxy-6-methylheptane], for which the IC50 amounted to 0.69 nM.
For `CC(C)C[C@H](O)[C@H](O)[C@H](CC1CCCCC1)NC(=O)[C@H](Cn1ccnc1)NC(=O)[C@@H](CC(=O)N(C)CCc1ccccn1)Cc1ccccc1` [Example 141, (2R)-2-Benzyl-3-[(2-pyridin-2-ylethyl)methylaminocarbonyl]propionyl-L-(1-imidazolyl)Ala Amide of (2S,3R,4S)-2-Amino-1-cyclohexyl-3,4-dihydroxy-6-methylheptane] the value was 0.88 nM; for `CC(C)C[C@H](O)[C@H](O)[C@H](CC1CCCCC1)NC(=O)[C@H](Cc1cscn1)NC(=O)[C@@H](CC(=O)N(C)CCn1ccnc1)Cc1ccccc1` [Example 117, (2R)-2-Benzyl-3-[(2-imidazol-1-ylethyl)methylaminocarbonyl]propionyl-L-(4-thiazolyl)Ala Amide of (2S,3R,4S)-2-Amino-1-cyclohexyl-3,4-dihydroxy-6-methylheptane], 0.3 nM.
Regarding `CC(C)C[C@H](O)[C@H](O)[C@H](CC1CCCCC1)NC(=O)[C@H](Cn1cccn1)N(C)C(=O)C(Cc1ccccc1)NC(=O)N(C)CCc1ccccn1` (stereo partly drawn) [Example 156, [(2-pyridin-2-ylethyl)methylcarbonyl]phenylalanine-L-(N-α-methyl)-(1-pyrazolyl)alanine Amide of (2S,3R,4S)-2Amino-1-cyclohexyl-3,4-dihydroxy-6-methylheptane], the IC50 is 1.3 nM.
For `CC(C)C[C@H](O)[C@H](O)[C@H](CC1CCCCC1)NC(=O)[C@H](Cn1cccn1)NC(=O)[C@@H](CC(=O)N(C)CCN1CCOCC1)Cc1ccccc1` [Example 140, (2R)-2-Benzyl-3-[(2-morpholin-4-ylethyl)methylaminocarbonyl]propionyl-L-(1-pyrazolyl)Ala Amide of (2S,3R,4S)-2-Amino-1-cyclohexyl-3,4-dihydroxy-6-methylheptane.] the value was 0.12 nM; for `CC[C@H](O)[C@H](O)[C@H](CC1CCCCC1)NC(=O)[C@H](Cc1cscn1)NC(=O)[C@@H](CC(=O)N(C)CCn1cccn1)Cc1ccccc1` [Example 112, (2R)-2-Benzyl-3-[(2-pyrazol-1-ylethyl)methylaminocarbonyl]propionyl-L-(4-Thiazolyl)Ala Amide of (2S,3R,4S)-2-Amino-1-cyclohexyl-3,4-dihydroxyhexane], 0.25 nM; for `COc1ccc(C[C@H](NC(=O)N(C)CCc2ccccn2)C(=O)N[C@@H](Cc2cscn2)C(=O)N[C@@H](CC2CCCCC2)[C@@H](O)[C@@H](O)CC(C)C)cc1` [Example 115, [2-Pyridin-2-ylethyl(methyl)amino]carbonyl(O-methyl)pyrosine-L-(4-thiazolyl)Ala Amide of (2S,3R,4S)-2-Amino-1-cyclohexyl-3,4-dihydroxy-6-methylheptane], 0.78 nM.
Turning to `CC(C)C[C@H](O)[C@H](O)[C@H](CC1CCCCC1)NC(=O)[C@H](Cc1cscn1)NC(=O)[C@H](Cc1ccccc1)Cn1cccn1` [Example 101, (2R)-2-Benzyl-3-pyrazol-1-ylpropionyl-L-(4-thiazolyl)Ala Amide of (2S,3R,4S)-2-Amino-1-cyclohexyl-3,4-dihydroxy-6-methylheptane], the IC50 was 0.67 nM.
Regarding `CC(C)C[C@H](O)[C@H](O)[C@H](CC1CCCCC1)NC(=O)[C@H](Cc1cscn1)NC(=O)[C@H](Cc1ccccc1)Cc1cscn1` [Example 97, (2R)-2-Benzyl-3-thiazol-4-ylpropionyl-L-(4-thiazolyl)Ala Amide of (2S,3R,4S)-2-Amino-1-cyclohexyl-3,4-dihydroxy-6-methylheptane], the IC50 is 0.68 nM.
For the compound `CC(C)C[C@H](O)[C@H](O)[C@H](CC1CCCCC1)NC(=O)[C@H](Cc1cscn1)NC(=O)[C@@H](CC(=O)N(C)CCn1cccc1)Cc1ccccc1` [Example 153, (2R)-2-Benzyl-3-[(2-pyrrol-1-ylethyl)methylcarbonyl]propionyl-L-(4-thiazolyl)Ala Amide of (2S,3R,4S)-2-Amino-1-cyclohexyl-3,4-dihydroxy-6-methylheptane], the IC50 is 0.28 nM.

These data come from US5063208A, “Peptidyl aminodiol renin inhibitors” (Abbott Laboratories, priority 1990, dated 1991).
